The target of one data set is Cholinesterase (Homo sapiens, UniProt P06276). Kind of data set: Inhibition of human serum BuChE using butyrylthiocholine iodide as substrate preincubated for 5 mins followed by substrate addition measured over 5 mins by UV-Vis spectrophotometric analysis.
For data set [1], the target named is T1, Acetylcholinesterase (Homo sapiens, UniProt P22303). Kind of data set: Mixed-type inhibition of human AChE using acetylthiocholine iodide as substrate preincubated for 5 mins followed by substrate addition measured over 5 mins by Lineweaver-Burk plot analysis.
Data set [2] deals with Acetylcholinesterase (Electrophorus electricus) (UniProt O42275). Kind of data set: Binding affinity to electric eel AChE in presence of 80 to 1216 uM donepezil by STD NMR spectroscopy method.
The target in data set [3] is T1, Acetylcholinesterase. Put plainly: Inhibition of human AChE using acetylthiocholine iodide as substrate preincubated for 5 mins followed by substrate addition measured over 5 mins by UV-Vis spectrophotometric analysis.
In data set [4] the test system is SH-SY5Y. Kind of data set: Induction of neuronal differentiation in human SH-SY5Y cells assessed as neurite bearing cells at 0.13 uM followed by culture medium replacement for every three days for 10 days by inverted-phase microscopic analysis relative to control. Format: functional.
Data set [5] concerns SH-SY5Y. Put plainly: Induction of neuronal differentiation in human SH-SY5Y cells assessed as decrease in cell proliferation at 0.13 uM followed by culture medium replacement for every three days for 10 days by inverted-phase microscopic analysis. The class given is functional, cell-based.
Data set [6] relates to HepG2. Put plainly: Cytotoxicity against human HepG2 cells assessed as reduction in cell viability at 2.84 to 5.68 uM after 24 hrs by XTT assay. The class given is cell-based. The settings on record: hepg2, 24 h.
The test system of data set [7] is SH-SY5Y. Put plainly: Cytoprotection against amyloid beta (1 to 42) peptide induced cell death in human SH-SY5Y cells assessed as increase in clonogenic survival after 24 hrs by Giemsa staining-based inverted microscopic analysis. Format: functional. The settings on record: read-out: MEC.
Data set [8] deals with SH-SY5Y. Put plainly: Induction of neuronal differentiation in human SH-SY5Y cells assessed as extensive neurites formation at 0.13 uM followed by culture medium replacement for every three days for 10 days by inverted-phase microscopic analysis. The class given is functional, cell-based.
For data set [9], the system named is SH-SY5Y. Put plainly: Cytotoxicity against human SH-SY5Y cells assessed as reduction in cell viability at 2.84 uM after 24 hrs by XTT assay. The class given is cell-based.
Data set [10] deals with T1, Acetylcholinesterase. Put plainly: Noncompetitive inhibition of human AChE using acetylthiocholine iodide as substrate preincubated for 5 mins followed by substrate addition measured over 5 mins by Lineweaver-Burk plot analysis.
Data set [11] concerns the target Acetylcholinesterase (Electrophorus electricus) (UniProt O42275). Put plainly: Binding affinity to electric eel AChE in presence fixed dose of donepezil by STD NMR spectroscopy method.
Data set [12] deals with SH-SY5Y. Kind of data set: Induction of neuronal differentiation in human SH-SY5Y cells assessed as neurite bearing cells at 0.014 uM followed by culture medium replacement for every three days for 10 days by inverted-phase microscopic analysis relative to control. Format: functional.
The test system of data set [13] is SH-SY5Y. Put plainly: Induction of neuronal differentiation in human SH-SY5Y cells assessed as extensive neurites formation at 0.014 uM followed by culture medium replacement for every three days for 10 days by inverted-phase microscopic analysis. Format: functional, cell-based.
The test system of data set [14] is SH-SY5Y. Kind of data set: Cytotoxicity against human SH-SY5Y cells assessed as reduction in cell viability at 0.056 uM after 24 hrs by XTT assay. Format: cell-based.
The test system of data set [15] is HepG2. Put plainly: Cytotoxicity against human HepG2 cells assessed as reduction in cell viability at 0.0035 to 0.224 uM after 24 hrs by XTT assay. The class given is cell-based. The settings on record: hepg2, 24 h.
Data set [16] has as its system SH-SY5Y. Kind of data set: Induction of neuronal differentiation in human SH-SY5Y cells assessed as decrease in cell proliferation at 0.014 uM followed by culture medium replacement for every three days for 10 days by inverted-phase microscopic analysis. The class given is functional, cell-based.

pIC50: −log10 of the molar value. Calls of active or inactive are those of the source. The rule behind the calls is not given here.

T1 sequence (P22303 whole entry): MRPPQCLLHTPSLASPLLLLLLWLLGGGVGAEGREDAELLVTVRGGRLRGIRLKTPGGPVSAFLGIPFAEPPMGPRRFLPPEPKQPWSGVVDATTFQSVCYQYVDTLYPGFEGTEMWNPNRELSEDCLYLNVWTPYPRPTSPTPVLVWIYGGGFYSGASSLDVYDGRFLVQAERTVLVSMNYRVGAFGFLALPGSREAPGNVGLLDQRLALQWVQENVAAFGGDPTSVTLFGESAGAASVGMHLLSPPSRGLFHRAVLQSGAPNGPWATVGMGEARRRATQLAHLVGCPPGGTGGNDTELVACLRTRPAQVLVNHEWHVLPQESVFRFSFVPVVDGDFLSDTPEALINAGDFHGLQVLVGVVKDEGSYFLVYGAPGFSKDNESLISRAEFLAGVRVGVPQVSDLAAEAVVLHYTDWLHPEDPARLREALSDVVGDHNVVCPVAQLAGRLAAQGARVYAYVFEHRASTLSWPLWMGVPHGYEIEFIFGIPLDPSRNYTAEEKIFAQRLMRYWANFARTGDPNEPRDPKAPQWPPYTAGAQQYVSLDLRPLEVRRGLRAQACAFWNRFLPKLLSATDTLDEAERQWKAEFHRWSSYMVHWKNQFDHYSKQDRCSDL
Sequence of Cholinesterase (P06276 whole entry): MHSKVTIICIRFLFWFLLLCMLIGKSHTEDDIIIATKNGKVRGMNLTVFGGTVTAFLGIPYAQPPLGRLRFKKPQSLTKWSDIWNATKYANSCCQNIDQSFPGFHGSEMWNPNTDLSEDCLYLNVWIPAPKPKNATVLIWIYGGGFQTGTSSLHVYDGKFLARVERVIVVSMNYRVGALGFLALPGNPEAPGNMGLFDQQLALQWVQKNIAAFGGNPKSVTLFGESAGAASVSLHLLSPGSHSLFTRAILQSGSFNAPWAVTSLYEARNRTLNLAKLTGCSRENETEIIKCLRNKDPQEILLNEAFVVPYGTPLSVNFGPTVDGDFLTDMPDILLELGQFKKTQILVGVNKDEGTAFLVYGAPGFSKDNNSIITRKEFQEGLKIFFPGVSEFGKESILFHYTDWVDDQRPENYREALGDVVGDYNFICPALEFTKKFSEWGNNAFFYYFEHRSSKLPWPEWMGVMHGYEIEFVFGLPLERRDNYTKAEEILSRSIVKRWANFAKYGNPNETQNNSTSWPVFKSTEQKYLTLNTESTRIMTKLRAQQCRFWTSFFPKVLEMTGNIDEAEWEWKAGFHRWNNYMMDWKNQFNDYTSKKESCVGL
Sequence of Acetylcholinesterase (Electrophorus electricus) (O42275 24-633 limits assumed): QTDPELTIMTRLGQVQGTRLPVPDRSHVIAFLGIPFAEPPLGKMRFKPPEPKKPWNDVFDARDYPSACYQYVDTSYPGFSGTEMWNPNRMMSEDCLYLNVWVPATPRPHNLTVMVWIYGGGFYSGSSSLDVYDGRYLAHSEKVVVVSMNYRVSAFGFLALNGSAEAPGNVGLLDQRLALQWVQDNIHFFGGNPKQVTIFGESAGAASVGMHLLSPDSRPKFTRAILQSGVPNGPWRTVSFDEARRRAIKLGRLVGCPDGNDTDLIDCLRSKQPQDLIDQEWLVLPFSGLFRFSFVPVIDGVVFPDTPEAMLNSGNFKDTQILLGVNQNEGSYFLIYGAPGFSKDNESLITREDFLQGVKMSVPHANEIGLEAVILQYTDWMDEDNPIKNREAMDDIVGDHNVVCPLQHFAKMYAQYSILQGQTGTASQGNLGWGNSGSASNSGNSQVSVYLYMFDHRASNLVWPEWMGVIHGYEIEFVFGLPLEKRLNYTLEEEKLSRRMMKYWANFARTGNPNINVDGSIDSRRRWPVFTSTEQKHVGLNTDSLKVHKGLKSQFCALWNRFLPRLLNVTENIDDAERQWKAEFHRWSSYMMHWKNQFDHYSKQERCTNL

Consider `COc1cc2c(cc1OC)C(=O)/C(=C/C1CCN(Cc3cc(N=[N+]=[N-])c4ccccc4n3)CC1)C2`, for which the negative-log IC50 (pIC50) is less than 5.00 at Cholinesterase and 5.31 at Acetylcholinesterase [3]. Also, the inhibition result on Acetylcholinesterase [1] is “Active”. Moreover, the result in data set [2] was inactive.
Take `COc1cc2c(cc1OC)C(=O)C(CC1CCN(Cc3cc(N)c4ccccc4n3)CC1)C2` (stereo not drawn): the Activity in the data set with SH-SY5Y [4] is listed as 43%; with HepG2 [6], “Non-Toxic”; with SH-SY5Y [9], “Toxic”. Further, the pIC50 against Cholinesterase is 5.18; at Acetylcholinesterase [3] it was 6.15. In addition, the outcome with SH-SY5Y [5] and with SH-SY5Y [8] was Active. In the data set with SH-SY5Y [7], the minimal effective concentration was 0.088 µM.
Take `OCC1CCN(Cc2cc(Cl)c3ccccc3n2)CC1`: the pIC50 against Cholinesterase and against Acetylcholinesterase [3] was less than 5.00 throughout.
`COc1cc2c(cc1OC)C(=O)C(CC1CCN(Cc3cc(Cl)c4ccccc4n3)CC1)C2` (stereo not drawn): the values for the negative-log IC50 (pIC50) against Cholinesterase and at Acetylcholinesterase [3] were 5.22 and less than 5.00, respectively.
For the molecule `COc1cc2c(cc1OC)C(=O)/C(=C/C1CCN(Cc3cc(N)c4ccccc4n3)CC1)C2`, at Acetylcholinesterase [10], the inhibition entry is “Active”. The negative logarithm of the IC50 (pIC50) against Cholinesterase is 5.43; against Acetylcholinesterase [3], 7.85. The outcome (in data set [11]; in data set [2]; in the data set with SH-SY5Y [13]; in the data set with SH-SY5Y [16]) was Active. Moreover, the minimal effective concentration in the data set with SH-SY5Y [7] is 0.0035 µM. Moreover, the values for the Activity with SH-SY5Y [12], in the data set with SH-SY5Y [14] and in the data set with HepG2 [15] were 55%, “Toxic” and “Non-Toxic”, respectively.
`COc1cc2c(cc1OC)C(=O)/C(=C/C1CCN(Cc3cc(Cl)c4ccccc4n3)CC1)C2`: the pIC50 against Cholinesterase and at Acetylcholinesterase [3] was less than 5.00 throughout.
On to `O=CC1CCN(Cc2cc(Cl)c3ccccc3n2)CC1`, for which the pIC50 at Cholinesterase and against Acetylcholinesterase [3] was less than 5.00 in each case.
`[N-]=[N+]=Nc1cc(CN2CCC(C=O)CC2)nc2ccccc12`: the pIC50 on Cholinesterase and at Acetylcholinesterase [3] was less than 5.00 each time.

For the origin of these results see ChEMBL document CHEMBL4130418, “From dual binding site acetylcholinesterase inhibitors to allosteric modulators: A new avenue for disease-modifying drugs in Alzheimer's disease” (Eur J Med Chem, 2017).
